This is an account of results in patent US5391800A, “Method for inhibition of cell motility by sphingosine-1-phosphate, its derivatives and mimetics and method of synthesizing sphingosine-1-phosphate and its derivatives” (The Biomembrane Institute, priority 1993, dated 1995).

One test concerns mouse 3T3 cell. Particulars: literature; cited from earlier work.
The test system of another test is B16/F1 cells. Description: Phagokinetic activity of B16/F1 cells on gold sol-coated plates. The class given is cell-based, mouse. The note with it: FIGS. 11A-F, SPN-1-P at 1.0 or 0.1 μM. As to the method:
Phagokinetic activity is measured by the ability of cells to ingest foreign particles while moving. Cell motility can be estimated as the area of a phagokinetic track on gold sol particle-coated plates as previously described {Albrecht-Buehler, Cell, 11:395 (1977)}. A uniform coating of gold particles is prepared on glass coverslips precoated with bovine serum albumin, and coverslips are rinsed repeatedly to remove non-adhering or loosely-adhering gold particles. Freshly-prepared neutrophils or tumor cells detached from culture are placed in a Petri dish containing the gold sol-coated plate, and incubated for about 2 hours (for human neutrophils) or about 18 hours (for tumor cells). The coverslips are fixed for 1 hour in a 4% formaldehyde solution in phosphate-buffered saline (PBS) and mounted on microscope slides. The phagokinetic tracks are observed on a television connected to a light microscope (Nikon, Tokyo, Japan). Tracks on the television are transferred to translucent sheets, which are then photocopied. Phagokinetic activity is quantitated by cutting and weighing the swept area in the copy.
Cell motility was estimated as the area of phagokinetic track on gold sol particle-coated plates as previously described {Albrecht-Buehler, Cell, 11:395 (1977)}. […] Phagokinetic activity was quantitated by cutting and weighing the swept area in the copy. […]

For test [1], the system named is human fibrosarcoma HT1080 cells. Description: Chemotactic motility of fibrosarcoma HT1080 cells through MATRI-GEL-coated transwell filter. The class given is cell-based. As to the method: (§1) The assays for determining chemotactic cell motility and chemoinvasion can be performed using transwell plates with a polycarbonate membrane filter (pore size 8 μm) (Costar Scientific, Cambridge, Mass.). Aliguots, e.g., 50 μl, of an aqueous solution of MATRI-GEL (Collaborative Research, Bedford, Mass.) containing SPN-1-P or other inhibitor (e.g., 20 μg/ml for chemotactic motility assay or 200 μg/ml for chemoinvasion assay), is added to each well and dried overnight. The filter is then fitted onto the lower chamber plate. The lower chamber can contain conditioned medium (CM) (i.e., medium used for splenic stromal cell culture, and containing motility factor secreted by these cells), e.g., 0.6 ml, with or without SPN-1-P or other inhibitor. To the upper chamber is added, e.g., about 100 μl, of cell suspension (5×10^4 cells/ml for invasion assay, 5×10^5 cells/ml for motility assay), which is then incubated in 5% CO2 at 37° C. for 70-72 hours (invasion assay) or 20 hours (motility assay). After incubation, cells remaining in the upper chamber are wiped off with a cotton swab, and cells which had migrated to the lower chamber side of the filter are fixed in methanol for 30 seconds and stained with 0.05% toluidine blue. The filter is removed, the stain is solubilized in 10% acetic acid (e.g., 0.1 ml for invasion assay, 0.5 ml for motility assay), and color intensity (optical density) is quantitated by ELISA reading at 630 nm. Using SPN-1-P, a linear relationship was observed between cell number and toluidine blue optical density (FIG. 7).
(§2) Assays were performed using transwell plates with polycarbonate membrane filters (pore size 8 μm) (Costar Scientific, Cambridge, Mass.). 50 μl aliguots of an aqueous solution of MATRI-GEL (Collaborative Research, Bedford, Mass.) containing 20 μg/ml (for chemotactic motility assay) or 200 μg/ml (for chemoinvasion assay) were added to each well and dried overnight. The filter was fitted onto the lower chamber plate. The lower chamber contained 0.6 ml conditioned medium (CM) (i.e., medium used for splenic stromal cell culture, and containing motility factor secreted by these cells) with or without the suspected inhibitor. To the upper chamber was added 100 μl of cell suspension (5×10^4 cells/ml for invasion assay, 5×10^5 cells/ml for motility assay), which was then incubated in 5% CO2 at 37° C. for 70-72 hours (invasion assay) or 20 hours (motility assay). After incubation, cells remaining in the upper chamber were wiped off with a cotton swab, and cells which had migrated to the lower chamber side of the filter were fixed in methanol for 30 seconds and stained with 0.05% toluidine blue. The filter was removed, the stain was solubilized in 10% acetic acid (0.1 ml for invasion assay, 0.5 ml for motility assay), and color intensity (optical density) was quantitated by ELISA reading at 630 nm. A linear relationship was observed between cell number and toluidine blue optical density (FIG. 7.).
(§3) In experiments with different quantities of MATRI-GEL, cell migration through transwell filter was maximal with 1 μg/well was applied, and when CM was used (FIG. 8). Therefore, chemotactic cell motility, as affected by various SPN derivatives, was assayed under these conditions.
(§4) *Mean ± S.E. of percent relative to control (n = 4). Actual O.D. value
(§5) and 0.147 (HT1080). 6 × 10^4 cells were placed on a transwell
(§6) filter coated with 1.0 μg MATRIGEL in the upper chamber, and cultured
(§7) for 18 hours in the presence of CM and SPN1-P in the lower chamber.

Another test concerns B16/F10 cells. The test is described as follows: Chemotactic motility of B16/F10 cells through MATRI-GEL-coated transwell filter. The class given is cell-based, mouse. On the procedure:
as §1, §2, §3, §4, §5, §6, §7

A further test deals with Balb/c 3T3 fibroblasts. Description: Chemotactic motility of Balb/c 3T3 fibroblasts through MATRI-GEL-coated transwell filter. Particulars: Mus musculus, 18 hours, relative to control, mean ± S.E., n = 4. The class given is cell-based. On the procedure:
as §1, §2, §3, §4, §5, §6, §7

For `CCCCCCCCCCCCC/C=C/[C@@H](O)[C@@H](N)CO` [SPN, sphingosine], the “Mouse 3T3 cell growth” value in the test on mouse 3T3 cell is “stimulation of mouse 3T3 cell growth”. The “Area cleared by tumor cells” value in the test on B16/F1 cells was “reduced the area cleared by tumor cells”.
For the compound `CCCCCCCCCCCCC/C=C/[C@@H](O)[C@@H](N)COP(=O)(O)O` [SPN-1-P, sphingosine-1-phosphate], the activity at 0.001 µM turned out to be 100 ± 21% in test [1] (Homo sapiens, HT-1080, HT1080, 0.001 μM, 18 hours, relative to control, mean ± S.E., n = 4); 96 ± 21% in the test on B16/F10 cells (Mus musculus, B16-F10, F10, 0.001 μM, 18 hours, relative to control, mean ± S.E., n = 4); 119 ± 9% in the test on Balb/c 3T3 fibroblasts (BALB/c3T3, 0.001 μM). Also, the activity at 0.01 µM in test [1] (Homo sapiens, HT-1080, HT1080, 0.01 μM, 18 hours, relative to control, mean ± S.E., n = 4) turned out to be 100 ± 30%; in the test with B16/F10 cells (Mus musculus, B16-F10, F10, 0.01 μM, 18 hours, relative to control, mean ± S.E., n = 4), 10 ± 4%; in the test with Balb/c 3T3 fibroblasts (BALB/c3T3, 0.01 μM), 125 ± 5%. Moreover, the activity at 0.1 µM in test [1] (Homo sapiens, HT-1080, HT1080, 0.1 μM, 18 hours, relative to control, mean ± S.E., n = 4) was determined as 115 ± 35%; with B16/F10 cells (Mus musculus, B16-F10, F10, 0.1 μM, 18 hours, relative to control, mean ± S.E., n = 4), 4 ± 2%; with Balb/c 3T3 fibroblasts (BALB/c3T3, 0.1 μM), 101 ± 10%. The activity at 1 µM in test [1] (Homo sapiens, HT-1080, HT1080, 1.0 μM, 18 hours, relative to control, mean ± S.E., n = 4) came to 105 ± 14%; in the test with B16/F10 cells (Mus musculus, B16-F10, F10, 1.0 μM, 18 hours, relative to control, mean ± S.E., n = 4) it was 4 ± 1%; in the test with Balb/c 3T3 fibroblasts (BALB/c3T3, 1.0 μM) it was 40 ± 1%. In addition, the activity at 5 µM in test [1] (Homo sapiens, HT-1080, HT1080, 5.0 μM, 18 hours, relative to control, mean ± S.E., n = 4) was 64 ± 4%; in the test on Balb/c 3T3 fibroblasts (BALB/c3T3, 5.0 μM) it was 11 ± 1%. Moreover, the “Susceptibility of human fibrosarcoma HT1080 cells (chemotactic motility)” value in test [1] (Table V, in words) is recorded as “low”. Besides, the “Area cleared by tumor cells” value in the test on B16/F1 cells was “greatly reduced”. Besides, the “Susceptibility of B16/F10 cells (chemotactic motility)” value in the test on B16/F10 cells (Table V, in words) is on record as “high”.
